Assay results taken from US10004701B2, “Methods and compositions for treating infection” (UNIVERSITY OF ROCHESTER, priority 2012, dated 2018).
Where a name gives a salt, the structure may show the parent alone.

Experiments:
Assay in all cases: AK assay 384-well format, Prestwick library screening
[1] = tested on: E. faecium; assay type: cell-based, Enterococcus faecium; conditions: for AK-based Prestwick Library Screening Results, E. faecium (fold increase in extracellular AK activity) / AK-based Prestwick library screening result, E. faecium (fold increase in extracellular AK activity): 50 μM final drug concentration; for AK-based Prestwick library screening result, E. faecium (fold increase in extracellular AK activity): planktonic E. faecium
[2] = tested on: S. aureus strain USA300-0114; assay type: cell-based, Staphylococcus aureus; conditions: for AK-based Prestwick Library Screening Results, S. aureus (fold increase in extracellular AK activity) / AK-based Prestwick library screening result, S. aureus (fold increase in extracellular AK activity): 50 μM final drug concentration; for AK-based Prestwick library screening result, S. aureus (fold increase in extracellular AK activity): planktonic S. aureus
[3] = tested on: K. pneumoniae; assay type: cell-based, Klebsiella pneumoniae; conditions: for AK-based Prestwick Library Screening Results, K. pneumoniae (fold increase in extracellular AK activity) / AK-based Prestwick library screening result, K. pneumoniae (fold increase in extracellular AK activity): 50 μM final drug concentration; for AK-based Prestwick library screening result, K. pneumoniae (fold increase in extracellular AK activity): planktonic K. pneumoniae
[4] = tested on: A. baumannii strain 98-37-09; assay type: cell-based, Acinetobacter baumannii; conditions: for AK-based Prestwick Library Screening Results, A. baumannii (fold increase in extracellular AK activity) / AK-based Prestwick library screening result, A. baumannii (fold increase in extracellular AK activity): 50 μM final drug concentration; for AK-based Prestwick library screening result, A. baumannii (fold increase in extracellular AK activity): planktonic A. baumannii
[5] = tested on: P. aeruginosa; assay type: cell-based, Pseudomonas aeruginosa; conditions: for AK-based Prestwick Library Screening Results, P. aeruginosa (fold increase in extracellular AK activity) / AK-based Prestwick library screening result, P. aeruginosa (fold increase in extracellular AK activity): 50 μM final drug concentration; for AK-based Prestwick library screening result, P. aeruginosa (fold increase in extracellular AK activity): planktonic P. aeruginosa
[6] = tested on: E. cloacae; assay type: cell-based, Enterobacter cloacae; conditions: for AK-based Prestwick Library Screening Results, E. cloacae (fold increase in extracellular AK activity) / AK-based Prestwick library screening result, E. cloacae (fold increase in extracellular AK activity): 50 μM final drug concentration; for AK-based Prestwick library screening result, E. cloacae (fold increase in extracellular AK activity): planktonic E. cloacae
[7] = tested on: E. coli; assay type: cell-based, Escherichia coli; conditions: for AK-based Prestwick Library Screening Results, E. coli (fold increase in extracellular AK activity) / AK-based Prestwick library screening result, E. coli (fold increase in extracellular AK activity): 50 μM final drug concentration; for AK-based Prestwick library screening result, E. coli (fold increase in extracellular AK activity): planktonic E. coli
[8] = planktonic, cutoff for positive 3-fold increase
[9] = positive cutoff 3-fold increase
[10] = planktonic, cutoff for positive-scoring molecules 3-fold increase
[11] = cutoff for positive-scoring molecules 3-fold increase

Structure (SMILES): CC(=O)NC1CCSC1=O (racemic) [N-Acetyl-DL-homocysteine Thiolactone]
- AK-based Prestwick Library Screening Results, E. faecium (fold increase in extracellular AK activity) [1, 8]: 0.8
- AK-based Prestwick Library Screening Results, S. aureus (fold increase in extracellular AK activity) [2, 8]: 0.4
- AK-based Prestwick Library Screening Results, K. pneumoniae (fold increase in extracellular AK activity) [3, 8]: 0.4
- AK-based Prestwick Library Screening Results, A. baumannii (fold increase in extracellular AK activity) [4, 8]: 0.4
- AK-based Prestwick Library Screening Results, P. aeruginosa (fold increase in extracellular AK activity) [5, 8]: 0.3
- AK-based Prestwick Library Screening Results, E. cloacae (fold increase in extracellular AK activity) [6, 8]: 0.7
- AK-based Prestwick Library Screening Results, E. coli (fold increase in extracellular AK activity) [7, 8]: 0.5

Structure (SMILES): CN1CCC2(C)c3cc(O)ccc3N(C)C12.O=C(O)/C=C/C(=O)O (single isomer, unassigned; (-)) [(−)-Eseroline fumarate salt]
- AK-based Prestwick library screening result, E. faecium (fold increase in extracellular AK activity) ([1]; […]): 1.1
- AK-based Prestwick library screening result, S. aureus (fold increase in extracellular AK activity) ([2]; […]): 0.9
- AK-based Prestwick library screening result, K. pneumoniae (fold increase in extracellular AK activity) ([3]; […]): 0.9
- AK-based Prestwick library screening result, A. baumannii (fold increase in extracellular AK activity) ([4]; […]): 0.9
- AK-based Prestwick library screening result, P. aeruginosa (fold increase in extracellular AK activity) ([5]; […]): 0.8
- AK-based Prestwick library screening result, E. cloacae (fold increase in extracellular AK activity) ([6]; […]): 1.4
- AK-based Prestwick library screening result, E. coli (fold increase in extracellular AK activity) ([7]; […]): 1.0

Structure (SMILES): CC(C)NCC(O)c1ccc(O)c(O)c1.Cl (single isomer, unassigned; (-)) [(−)-Isoproterenol hydrochloride]
- AK-based Prestwick library screening result, E. faecium (fold increase in extracellular AK activity) [1, 9]: 0.9
- AK-based Prestwick library screening result, S. aureus (fold increase in extracellular AK activity) [2, 9]: 0.9
- AK-based Prestwick library screening result, K. pneumoniae (fold increase in extracellular AK activity) [3, 9]: 1.2
- AK-based Prestwick library screening result, A. baumannii (fold increase in extracellular AK activity) [4, 9]: 0.9
- AK-based Prestwick library screening result, P. aeruginosa (fold increase in extracellular AK activity) [5, 9]: 1.1
- AK-based Prestwick library screening result, E. cloacae (fold increase in extracellular AK activity) [6, 9]: 2.3
- AK-based Prestwick library screening result, E. coli (fold increase in extracellular AK activity) [7, 9]: 1.2

Structure (SMILES): CC(=C(CCO)SSCC1CCCO1)N(C=O)Cc1cnc(C)nc1N (stereo in doubt) [Fursultiamine Hydrochloride]
- fold induction at 50 µM ([1]; Enterococcus faecium, 3 h, read-out: AK-based Prestwick library screening result, E. faecium (fold increase in extracellular AK activity)): 1.1
- fold induction at 50 µM ([2]; Staphylococcus aureus, USA300, 3 h, read-out: AK-based Prestwick library screening result, S. aureus (fold increase in extracellular AK activity)): 1
- fold induction at 50 µM ([3]; Klebsiella pneumoniae, 3 h, read-out: AK-based Prestwick library screening result, K. pneumoniae (fold increase in extracellular AK activity)): 1
- fold induction at 50 µM ([4]; Acinetobacter baumannii, 983709, 3 h, read-out: AK-based Prestwick library screening result, A. baumannii (fold increase in extracellular AK activity)): 1.3
- fold induction at 50 µM ([5]; Pseudomonas aeruginosa, 3 h, read-out: AK-based Prestwick library screening result, P. aeruginosa (fold increase in extracellular AK activity)): 1.1
- fold induction at 50 µM ([6]; Enterobacter cloacae, 3 h, read-out: AK-based Prestwick library screening result, E. cloacae (fold increase in extracellular AK activity)): 1.2
- fold induction at 50 µM ([7]; Escherichia coli, 3 h, read-out: AK-based Prestwick library screening result, E. coli (fold increase in extracellular AK activity)): 1.4

Structure (SMILES): CC(=O)NC1[C@@H](O)OC(CO)[C@@H](O)[C@H]1O[C@H](C)C(=O)O (stereo in doubt) [Muramic acid, N-acetyl]
- AK-based Prestwick Library Screening Results, E. faecium (fold increase in extracellular AK activity) [1, 8]: 1.0
- AK-based Prestwick Library Screening Results, S. aureus (fold increase in extracellular AK activity) [2, 8]: 1.0
- AK-based Prestwick Library Screening Results, K. pneumoniae (fold increase in extracellular AK activity) [3, 8]: 1.0
- AK-based Prestwick Library Screening Results, A. baumannii (fold increase in extracellular AK activity) [4, 8]: 1.5
- AK-based Prestwick Library Screening Results, P. aeruginosa (fold increase in extracellular AK activity) [5, 8]: 1.1
- AK-based Prestwick Library Screening Results, E. cloacae (fold increase in extracellular AK activity) [6, 8]: 1.4
- AK-based Prestwick Library Screening Results, E. coli (fold increase in extracellular AK activity) [7, 8]: 1.1

Structure (SMILES): CC(C)NC[C@@H](O)c1ccc(O)c(O)c1.O=C(O)C(O)C(O)C(=O)O [(+)-Isoproterenol (+)-bitartrate salt]
- AK-based Prestwick Library Screening Results, E. faecium (fold increase in extracellular AK activity) [1, 10]: 0.9
- AK-based Prestwick Library Screening Results, S. aureus (fold increase in extracellular AK activity) [2, 10]: 0.8
- AK-based Prestwick Library Screening Results, K. pneumoniae (fold increase in extracellular AK activity) [3, 10]: 1.0
- AK-based Prestwick Library Screening Results, A. baumannii (fold increase in extracellular AK activity) [4, 10]: 0.8
- AK-based Prestwick Library Screening Results, P. aeruginosa (fold increase in extracellular AK activity) [5, 10]: 0.8
- AK-based Prestwick Library Screening Results, E. cloacae (fold increase in extracellular AK activity) [6, 10]: 1.4
- AK-based Prestwick Library Screening Results, E. coli (fold increase in extracellular AK activity) [7, 10]: 0.9

Structure (SMILES): CC(C)(C)NC[C@@H](O)COc1cccc2c1CCCC2=O.Cl [(+)-Levobunolol hydrochloride]
- AK-based Prestwick Library Screening Results, E. faecium (fold increase in extracellular AK activity) [1, 11]: 0.9
- AK-based Prestwick Library Screening Results, S. aureus (fold increase in extracellular AK activity) [2, 11]: 1.3
- AK-based Prestwick Library Screening Results, K. pneumoniae (fold increase in extracellular AK activity) [3, 11]: 0.9
- AK-based Prestwick Library Screening Results, A. baumannii (fold increase in extracellular AK activity) [4, 11]: 0.9
- AK-based Prestwick Library Screening Results, P. aeruginosa (fold increase in extracellular AK activity) [5, 11]: 1.2
- AK-based Prestwick Library Screening Results, E. cloacae (fold increase in extracellular AK activity) [6, 11]: 1.5
- AK-based Prestwick Library Screening Results, E. coli (fold increase in extracellular AK activity) [7, 11]: 1.2

Structure (SMILES): CC(C)NC[C@@H](O)COc1ccc(CC(N)=O)cc1 [(R)-(+)-Atenolol]
- AK-based Prestwick Library Screening Results, E. faecium (fold increase in extracellular AK activity) [1, 11]: 1.0
- AK-based Prestwick Library Screening Results, S. aureus (fold increase in extracellular AK activity) [2, 11]: 1.2
- AK-based Prestwick Library Screening Results, K. pneumoniae (fold increase in extracellular AK activity) [3, 11]: 1.2
- AK-based Prestwick Library Screening Results, A. baumannii (fold increase in extracellular AK activity) [4, 11]: 1.3
- AK-based Prestwick Library Screening Results, P. aeruginosa (fold increase in extracellular AK activity) [5, 11]: 1.2
- AK-based Prestwick Library Screening Results, E. cloacae (fold increase in extracellular AK activity) [6, 11]: 1.3
- AK-based Prestwick Library Screening Results, E. coli (fold increase in extracellular AK activity) [7, 11]: 1.3

Structure (SMILES): COc1ccc2cc([C@@H](C)C(=O)[O-])ccc2c1.[Na+] [(R)-Naproxen sodium salt]
- AK-based Prestwick Library Screening Results, E. faecium (fold increase in extracellular AK activity) [1, 11]: 1.0
- AK-based Prestwick Library Screening Results, S. aureus (fold increase in extracellular AK activity) [2, 11]: 1.0
- AK-based Prestwick Library Screening Results, K. pneumoniae (fold increase in extracellular AK activity) [3, 11]: 1.0
- AK-based Prestwick Library Screening Results, A. baumannii (fold increase in extracellular AK activity) [4, 11]: 1.1
- AK-based Prestwick Library Screening Results, P. aeruginosa (fold increase in extracellular AK activity) [5, 11]: 1.0
- AK-based Prestwick Library Screening Results, E. cloacae (fold increase in extracellular AK activity) [6, 11]: 1.7
- AK-based Prestwick Library Screening Results, E. coli (fold increase in extracellular AK activity) [7, 11]: 1.1

Structure (SMILES): CC(C)NC[C@@H](O)COc1cccc2ccccc12.Cl [(R)-Propranolol hydrochloride]
- AK-based Prestwick library screening result, E. faecium (fold increase in extracellular AK activity) [1, 9]: 0.9
- AK-based Prestwick library screening result, S. aureus (fold increase in extracellular AK activity) [2, 9]: 0.8
- AK-based Prestwick library screening result, K. pneumoniae (fold increase in extracellular AK activity) [3, 9]: 0.7
- AK-based Prestwick library screening result, A. baumannii (fold increase in extracellular AK activity) [4, 9]: 0.9
- AK-based Prestwick library screening result, P. aeruginosa (fold increase in extracellular AK activity) [5, 9]: 0.8
- AK-based Prestwick library screening result, E. cloacae (fold increase in extracellular AK activity) [6, 9]: 17.3
- AK-based Prestwick library screening result, E. coli (fold increase in extracellular AK activity) [7, 9]: 0.8

Structure (SMILES): N[C@H]1CONC1=O [(S)-(−)-Cycloserine]
- AK-based Prestwick library screening result, E. faecium (fold increase in extracellular AK activity) [1, 9]: 1.1
- AK-based Prestwick library screening result, S. aureus (fold increase in extracellular AK activity) [2, 9]: 1.1
- AK-based Prestwick library screening result, K. pneumoniae (fold increase in extracellular AK activity) [3, 9]: 1.0
- AK-based Prestwick library screening result, A. baumannii (fold increase in extracellular AK activity) [4, 9]: 1.1
- AK-based Prestwick library screening result, P. aeruginosa (fold increase in extracellular AK activity) [5, 9]: 1.1
- AK-based Prestwick library screening result, E. cloacae (fold increase in extracellular AK activity) [6, 9]: 1.6
- AK-based Prestwick library screening result, E. coli (fold increase in extracellular AK activity) [7, 9]: 1.3
